Laboratory results from patent US11000491B2, “Amino-aryl-benzamide compounds and methods of use thereof” (HEPANOVA, INC., priority 2017, dated 2021).
Where two headings read alike, the source gives them in different places.

Legend:
Assay type in all cases: cell-based
Huh7 cells = test: LD content in Huh7 cells pre-treated with insulin, Oil-Red-O staining, absorbance OD 540 nm; settings: procedure of Example 3, read-out: LD content inhibition (EC50)
Procedure, shortened: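 Huh7 cells, mock-treated or pre-treated with 1 mM insulin, were then exposed to compound at the indicated amounts. Lipid droplets stained with Oil Red O and quantified by absorbance at OD 540 nm.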

SREBP-1 = SREBP-1 expression in cultured primary human hepatocytes; settings: procedure of Example 6, read-out: SREBP-1 mRNA inhibition (EC50)
Procedure, shortened: (§1)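 Primary human hepatocytes in culture exposed to a range of HPN-01 derivative concentrations; SREBP-1 and SREBP-2 mRNA expression then measured to assess inhibition.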

SREBP-2 = SREBP-2 expression in cultured primary human hepatocytes; settings: procedure of Example 6, read-out: SREBP-2 mRNA inhibition (EC50)
Procedure, shortened: as §1

[1] = Homo sapiens, Huh-7, Huh7 cells

Molecule | EC50 (Huh7 cells; [1]) [nM] | EC50 (SREBP-1; Homo sapiens, Hepatocyte) [nM] | EC50 (SREBP-2; Homo sapiens, Hepatocyte) [µM] | EC50 (SREBP-1; Hepatocyte) [nM] | EC50 (SREBP-2; Hepatocyte) [µM] | EC50 (Huh7 cells; Huh7 cells) [nM] | EC50 (SREBP-1) [nM] | EC50 (SREBP-2) [µM]
CCOC(=O)c1ccc(-c2cc(C(N)=O)c(N)c(-c3ccc(S(N)(=O)=O)cc3)c2)cc1 [HPN-01302, ethyl 4′-amino-5′-carbamoyl-4″-sulfamoyl-[1,1′:3′,1″-terphenyl]-4-carboxylate] | 1030 | 3160 | 4.52 | – | – | – | – | –
NC(=O)c1cc(C#Cc2ccc(Cl)cc2)cc(-c2ccc(S(N)(=O)=O)cc2)c1N [HPN-01205, 2-amino-5-((4-chlorophenyl)ethynyl)-4′-sulfamoyl-[1,1′-biphenyl]-3-carboxamide] | 520 | 1750 | 2.09 | – | – | – | – | –
CC(C)OC(=O)/C=C/c1cc(C(N)=O)c(N)c(-c2ccc(S(N)(=O)=O)cc2)c1 [HPN-01116, isopropyl (E)-3-(6-amino-5-carbamoyl-4′-sulfamoyl-[1,1′-biphenyl]-3-yl)acrylate] | 1010 | 3740 | 5.01 | – | – | – | – | –
C[Si](C)(C)C#Cc1cc(C(N)=O)c(N)c(-c2ccc(S(N)(=O)=O)cc2)c1 [HPN-01209, 2-amino-4′-sulfamoyl-5-((trimethylsilyl)ethynyl)-[1,1′-biphenyl]-3-carboxamide] | 820 | – | – | 2330 | 1.98 | – | – | –
NC(=O)c1cc(C#CCOC(=O)c2ccccc2Br)cc(-c2ccc(S(N)(=O)=O)cc2)c1N [HPN-01211, 3-(6-amino-5-carbamoyl-4′-sulfamoyl-[1,1′-biphenyl]-3-yl)prop-2-yn-1-yl 2-bromobenzoate] | 780 | 3790 | 7.14 | – | – | – | – | –
NC(=O)c1cc(-c2cc(Cl)c[nH]2)cc(-c2ccc(S(N)(=O)=O)cc2)c1N [HPN-01309, 2-amino-5-(4-chloro-1H-pyrrol-2-yl)-4′-sulfamoyl-[1,1′-biphenyl]-3-carboxamide] | 3500 | 8160 | 8.96 | – | – | – | – | –
NC(=O)c1cc(C#CCO)cc(-c2ccc(S(N)(=O)=O)cc2)c1N [HPN-01201, 2-amino-5-(3-hydroxyprop-1-ynyl)-4′-sulfamoylbiphenyl-3-carboxamide] | 1200 | 3160 | 6.85 | – | – | – | – | –
NC(=O)c1cc(/C=C/c2ccc(Cl)cc2)cc(-c2ccc(S(N)(=O)=O)cc2)c1N [HPN-01107, (E)-2-amino-5-(4-chlorostyryl)-4′-sulfamoyl-[1,1′-biphenyl]-3-carboxamide] | 1170 | 5660 | 7.37 | – | – | – | – | –
NC(=O)c1cc(-c2c[nH]c(Cl)c2)cc(-c2ccc(S(N)(=O)=O)cc2)c1N [HPN-01310, 2-amino-5-(5-chloro-1H-pyrrol-3-yl)-4′-sulfamoyl-[1,1′-biphenyl]-3-carboxamide] | 10500 | 13000 | 23.9 | – | – | – | – | –
methyl (E)-3-(6-amino-4′-(amino-(methylene)sulfinyl)-5-carbamoyl-[1,1′-biphenyl]-3-yl)acrylate [HPN-01114] | – | – | – | – | – | 210 | 1270 | 2.47
CCCCCCCOC(=O)/C=C/c1cc(C(N)=O)c(N)c(-c2ccc(S(N)(=O)=O)cc2)c1 [HPN-01118, heptyl (E)-3-(6-amino-5-carbamoyl-4′-sulfamoyl-[1,1′-biphenyl]-3-yl)acrylate] | 840 | 2340 | 2.51 | – | – | – | – | –
NC(=O)c1cc(/C=C/c2cccc(F)c2)cc(-c2ccc(S(N)(=O)=O)cc2)c1N [HPN-01104, (E)-2-amino-5-(3-fluorostyryl)-4′-sulfamoyl-[1,1′-biphenyl]-3-carboxamide] | 670 | 2080 | 3.26 | – | – | – | – | –
NC(=O)c1cc(C#Cc2ccccc2)cc(-c2ccc(S(N)(=O)=O)cc2)c1N [HPN-01202, 2-amino-5-(phenylethynyl)-4′-sulfamoylbiphenyl-3-carboxamide] | 290 | 640 | 0.9 | – | – | – | – | –
2-amino-5-((3-chlorophenyl)ethynyl)-4′-sulfamoyl-[1,1′-biphenyl]-3-carboxamide [HPN-01206] | – | – | – | – | – | 900 | 1680 | 1.07
(E)-2-amino-5-(3-(cyclohexylamino)-3-oxoprop-1-en-1-yl)-4′-sulfamoyl-[1,1′-biphenyl]-3-carboxamide [HPN-01133] | – | – | – | – | – | 700 | 2550 | 3.07
COc1ccc(C(=O)OCC#Cc2cc(C(N)=O)c(N)c(-c3ccc(S(N)(=O)=O)cc3)c2)cc1 [HPN-01218, 3-(6-amino-5-carbamoyl-4′-sulfamoyl-[1,1′-biphenyl]-3-yl)prop-2-yn-1-yl 4-methoxybenzoate] | 990 | 4540 | 6.51 | – | – | – | – | –
NC(=O)c1cc(C2CCC(Br)C2)cc(-c2ccc(S(N)(=O)=O)cc2)c1N (stereo not drawn) [HPN-01321, 2-amino-5-(3-bromocyclopentyl)-4′-sulfamoyl-[1,1′-biphenyl]-3-carboxamide] | 1760 | 3060 | 5.31 | – | – | – | – | –
4′-(2-aminoacetamido)-4-chloro-4″-ureido-[1, 1′:3′,1″-terphenyl]-5′-carboxamide [HPN-01518] | – | – | – | – | – | 1110 | 2920 | 4.86
NC(=O)c1cc(Oc2cccc(C(=O)O)c2)cc(-c2ccc(S(N)(=O)=O)cc2)c1N [HPN-01318, 3-((6-amino-5-carbamoyl-4′-sulfamoyl-[1,1′-biphenyl]-3-yl)oxy)benzoic acid] | 310 | 770 | 1.16 | – | – | – | – | –

Second part, led by results:

EC50 (Huh7 cells; [1]) [nM] | Molecule | EC50 (SREBP-1; Homo sapiens, Hepatocyte) [nM] | EC50 (SREBP-2; Homo sapiens, Hepatocyte) [µM] | EC50 (SREBP-1; Hepatocyte) [nM] | EC50 (SREBP-2; Hepatocyte) [µM] | EC50 (Huh7 cells; Huh7 cells) [nM] | EC50 (SREBP-1) [nM] | EC50 (SREBP-2) [µM]
1150 | Nc1c(C(=O)Nc2ccc(F)c(F)c2)cc(-c2ccc(Cl)cc2)cc1-c1ccc(S(N)(=O)=O)cc1 [HPN-01615, 4′-amino-4-chloro-N-(3,4-difluorophenyl)-4″-sulfamoyl-[1,1′:3′,1″-terphenyl]-5′-carboxamide] | 6690 | 11.7 | – | – | – | – | –
1100 | NC(=O)c1cc(-c2ccc(Cl)cc2)cc(-c2ccc(S(N)(=O)=O)cc2)c1NC(=O)CCO [HPN-01516, 4-chloro-4′-(3-hydroxypropanamido)-4″-sulfamoyl-[1, 1′:3′,1″-terphenyl]-5′-carboxamide] | 1910 | 2.07 | – | – | – | – | –
1200 | Nc1c(C(=O)NCCO)cc(-c2ccc(Br)cc2)cc1-c1ccc(S(N)(=O)=O)cc1 [HPN-01608, 4′-amino-4-bromo-N-(2-hydroxyethyl)-4″-sulfamoyl-[1,1′:3′,1″-terphenyl]-5′-carboxamide] | 2390 | 4.31 | – | – | – | – | –
1150 | NC(=O)c1cc(-c2ccc(Cl)cc2)cc(NCc2ccc(S(N)(=O)=O)cc2)c1N [HPN-01426, 4-amino-4′-chloro-5-((4-sulfamoylbenzyl)amino)-[1,1′-biphenyl]-3-carboxamide] | 11000 | 9.4 | – | – | – | – | –
1570 | NC(=O)c1cc(-c2ccc(Cl)cc2)cc(Sc2cccc(S(N)(=O)=O)c2)c1N [HPN-01414, 4-amino-4′-chloro-5-((3-sulfamoylphenyl)thio)-[1,1′-biphenyl]-3-carboxamide] | 3940 | 9.86 | – | – | – | – | –
1150 | NCCC(=O)Nc1c(C(N)=O)cc(-c2ccc(Br)cc2)cc1-c1ccc(S(N)(=O)=O)cc1 [HPN-01514, 4′-(3-aminopropanamido)-4-bromo-4″-sulfamoyl-[1,1′:3′,1″-terphenyl]-5′-carboxamide] | 2830 | 5.1 | – | – | – | – | –
1430 | Nc1c(C(=O)Nc2ccc(O)c(O)c2)cc(-c2ccc(Br)cc2)cc1-c1ccc(S(N)(=O)=O)cc1 [HPN-01618, 4′-amino-4-bromo-N-(3,4-dihydroxyphenyl)-4″-sulfamoyl-[1,1′:3′,1″-terphenyl]-5′-carboxamide] | 3570 | 6.37 | – | – | – | – | –
2390 | Nc1c(C(=O)NCc2cccnc2)cc(-c2ccc(Cl)cc2)cc1-c1ccc(S(N)(=O)=O)cc1 [HPN-01630, 4′-amino-4-chloro-N-(pyridin-3-ylmethyl)-4″-sulfamoyl-[1,1′:3′,1″-terphenyl]-5′-carboxamide] | 3570 | 3.87 | – | – | – | – | –
660 | NC(=O)c1cc(-c2ccc(Br)cc2)cc(Oc2cccc(S(N)(=O)=O)c2)c1N [HPN-01415, 4-amino-4′-bromo-5-(3-sulfamoylphenoxy)-[1, 1′-biphenyl]-3-carboxamide] | 2350 | 6.45 | – | – | – | – | –
2320 | CNC(=O)c1cc(-c2ccc(Br)cc2)cc(-c2ccc(S(N)(=O)=O)cc2)c1N [HPN-01602, 4′-amino-4-bromo-N-methyl-4″-sulfamoyl-[1,1′:3′,1″-terphenyl]-5′-carboxamide] | 3320 | 4.73 | – | – | – | – | –
460 | NCC(=O)Nc1c(C(N)=O)cc(-c2ccc(Cl)cc2)cc1-c1ccc(S(N)(=O)=O)cc1 [HPN-01504, 4′-(2-aminoacetamido)-4-chloro-4″-sulfamoyl-[1,1′:3′,1″-terphenyl]-5′-carboxamide] | 730 | 1.11 | – | – | – | – | –
1160 | NS(=O)(=O)c1ccc(-c2cc(-c3ccc(Br)cc3)cc3c(=O)[nH]c(=O)[nH]c23)cc1 [HPN-01610, 4-(6-(4-bromophenyl)-2,4-dioxo-1,2,3,4-tetrahydroquinazolin-8-yl)benzene sulfonamide] | 2000 | 3.44 | – | – | – | – | –
500 | NC(=O)c1cc(-c2ccc(Cl)cc2)cc(-c2ccc(NC(=O)CO)cc2)c1N [HPN-01419, 4′-amino-4-chloro-4″-(2-hydroxyacetamido)-[1,1′:3′,1″-terphenyl]-5′-carboxamide] | 1820 | 3.53 | – | – | – | – | –
